Our source for the IC50 values is patent US20240368135A1 (VERTEX PHARMACEUTICALS INCORPORATED, priority 2021, published 2024).

The assay addresses human NaV 1.8 (Homo sapiens, UniProt Q9Y5Y9). Nature of the assay: E-VIPR assay detecting and measuring NaV inhibition properties. The conditions noted are these: HEK cells expressing truncated human NaV 1.8. The format is cell-based. In short, it runs like this: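 Membrane potential was followed by coumarin/oxonol FRET during electrical field stimulation of matrigel-seeded HEK cells carrying truncated human NaV1.8 plus KIR2.1. Dosing used 11 points, 3-fold steps, top 300 nM final, 0.625% DMSO, with or without 25% human serum.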

[1] abbreviates: no human serum, read-out: IC50 in the E-VIPR Assay.

Each structure is given as a SMILES string. Read-outs that look alike come from different tables or passages of the source.

human NaV 1.8, sequence (Q9Y5Y9 126-399 limits assumed): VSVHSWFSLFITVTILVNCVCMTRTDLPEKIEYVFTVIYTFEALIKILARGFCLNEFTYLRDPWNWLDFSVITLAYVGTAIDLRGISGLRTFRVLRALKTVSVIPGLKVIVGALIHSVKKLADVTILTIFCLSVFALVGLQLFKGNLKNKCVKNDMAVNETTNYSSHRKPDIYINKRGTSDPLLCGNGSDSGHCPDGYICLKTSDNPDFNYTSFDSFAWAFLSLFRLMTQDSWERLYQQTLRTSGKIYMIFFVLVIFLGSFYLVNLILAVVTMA
human NaV 1.8, sequence (Q9Y5Y9 660-890 limits assumed): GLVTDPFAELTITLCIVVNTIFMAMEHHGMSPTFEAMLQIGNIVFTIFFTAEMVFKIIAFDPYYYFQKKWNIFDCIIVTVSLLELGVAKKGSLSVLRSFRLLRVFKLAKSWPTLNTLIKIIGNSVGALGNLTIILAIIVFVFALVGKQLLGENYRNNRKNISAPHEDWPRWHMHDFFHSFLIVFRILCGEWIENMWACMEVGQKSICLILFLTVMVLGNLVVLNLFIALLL
human NaV 1.8, sequence (Q9Y5Y9 1148-1722 limits assumed): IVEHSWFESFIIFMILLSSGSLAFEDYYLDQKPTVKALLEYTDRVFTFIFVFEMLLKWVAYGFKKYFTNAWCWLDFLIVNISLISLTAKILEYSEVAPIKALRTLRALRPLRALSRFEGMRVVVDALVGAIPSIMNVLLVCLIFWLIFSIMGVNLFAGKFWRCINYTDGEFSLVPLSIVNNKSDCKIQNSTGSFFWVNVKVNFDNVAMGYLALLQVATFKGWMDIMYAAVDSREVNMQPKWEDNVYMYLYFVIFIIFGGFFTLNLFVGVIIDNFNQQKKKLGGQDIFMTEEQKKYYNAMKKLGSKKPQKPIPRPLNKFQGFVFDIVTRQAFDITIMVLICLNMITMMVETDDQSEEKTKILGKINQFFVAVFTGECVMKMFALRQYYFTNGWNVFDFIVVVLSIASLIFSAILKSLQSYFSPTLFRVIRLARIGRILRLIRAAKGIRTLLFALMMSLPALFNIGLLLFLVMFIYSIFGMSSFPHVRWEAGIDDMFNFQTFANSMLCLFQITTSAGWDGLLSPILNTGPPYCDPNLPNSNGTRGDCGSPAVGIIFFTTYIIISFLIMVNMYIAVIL

The IC50 is the concentration that inhibits the measured activity by half. As to `COc1c([C@H]2[C@H](C(=O)Nc3cc(C(O)CCO)ncc3F)O[C@@](C)(C(F)(F)F)[C@H]2C)ccc(F)c1F` (single isomer, unassigned) [Compound 256, rel-(2R*,3S*,4S*,5R*)-3-(3,4-difluoro-2-methoxyphenyl)-N-(2-(1,3-dihydroxypropyl)-5-fluoropyridin-4-yl)-4,5-dimethyl-5-(trifluoromethyl)tetrahydrofuran-2-carboxamide], the IC50 under setting [1] is less than 10 nM. On the same count and under the same terms, the same measure for `CCOc1c([C@H]2[C@H](C(=O)Nc3ccnc(S(C)(=N)=O)c3)O[C@@](C)(C(F)(F)F)[C@H]2C)ccc(F)c1C` (single isomer, unassigned) [Compound 128]: less than 10 nM; for `COc1c([C@H]2[C@H](C(=O)NCC#N)O[C@@](C)(C(F)(F)F)[C@H]2C)ccc(F)c1F` [Compound 277, (2R,3S,4S,5R)-N-(cyanomethyl)-3-(3,4-difluoro-2-methoxyphenyl)-4,5-dimethyl-5-(trifluoromethyl)tetrahydrofuran-2-carboxamide]: no less than 1000 nM; for `COc1c([C@H]2[C@H](C(=O)Nc3ccnc(N4C(=O)CN(C)C[C@H]4CO)c3)O[C@@](C)(C(F)(F)F)[C@H]2C)ccc(F)c1F` [Compound 512, (2R,3S,4S,5R)-3-(3,4-difluoro-2-methoxyphenyl)-N-(2-((S)-2-(hydroxymethyl)-4-methyl-6-oxopiperazin-1-yl)pyridin-4-yl)-4,5-dimethyl-5-(trifluoromethyl)tetrahydrofuran-2-carboxamide]: less than 10 nM. On the same count and under the same terms, the value for `COc1c([C@H]2[C@H](C(=O)NCc3nc(C(C)C)no3)O[C@@](C)(C(F)(F)F)[C@H]2C)ccc(F)c1F` [Compound 289, (2R,3S,4S,5R)-3-(3,4-difluoro-2-methoxyphenyl)-N-((3-isopropyl-1,2,4-oxadiazol-5-yl)methyl)-4,5-dimethyl-5-(trifluoromethyl)tetrahydrofuran-2-carboxamide] was no less than 1000 nM.

Regarding `CN=S(C)(=O)c1cc(NC(=O)[C@@H]2O[C@@](C)(C(F)(F)F)[C@@H](C)[C@H]2c2ccc(F)c(F)c2OC)ccn1` (relative stereo) [Compound 528, rel-(2R,3S,4S,5R)-3-(3,4-difluoro-2-methoxyphenyl)-N-(2-(N,S-dimethylsulfonimidoyl)pyridin-4-yl)-4,5-dimethyl-5-(trifluoromethyl)tetrahydrofuran-2-carboxamide], the IC50 under setting [1] was less than 10 nM.

On to `C[C@H]1[C@@H](c2ccc(F)c(F)c2OC(F)F)[C@H](C(=O)Nc2ccc(C(N)=O)nc2)O[C@@]1(C)C(F)(F)F` (single isomer, unassigned) [Compound 94], for which, under setting [1], the IC50 is less than 10 nM. The same measure, in the same setting: the value for `COc1c([C@H]2[C@H](C(=O)NC(C)C(=O)NC3CC3)O[C@@](C)(C(F)(F)F)[C@H]2C)ccc(F)c1F` (stereo partly drawn) [Compound 297, (2R,3S,4S,5R)-N-(1-(cyclopropylamino)-1-oxopropan-2-yl)-3-(3,4-difluoro-2-methoxyphenyl)-4,5-dimethyl-5-(trifluoromethyl)tetrahydrofuran-2-carboxamide] was no less than 1000 nM. Turning to `COc1c(C2C(C(=O)Nc3ccnc(C(O)CO)c3)OC(C)(C)C2C)ccc(F)c1F` (single isomer, unassigned) [Compound 722, rel-3-(3,4-difluoro-2-methoxyphenyl)-N-(2-(1,2-dihydroxyethyl)pyridin-4-yl)-4,5,5-trimethyltetrahydrofuran-2-carboxamide], the IC50 (in the presence of human serum (compound numbers followed by *), read-out: IC50 in the E-VIPR Assay, performed in the presence of human serum) is no less than 1000 nM. With `Cc1nn(C(F)F)cc1NC(=O)[C@@H]1O[C@@](C)(C(F)(F)F)[C@@H](C)[C@H]1c1ccc(F)c(F)c1OCCN1CC2(COC2)C1` [Compound 598, (2R,3S,4S,5R)-3-(2-(2-(2-oxa-6-azaspiro[3.3]heptan-6-yl)ethoxy)-3,4-difluorophenyl)-N-(1-(difluoromethyl)-3-methyl-1H-pyrazol-4-yl)-4,5-dimethyl-5-(trifluoromethyl)tetrahydrofuran-2-carboxamide], the IC50 under setting [1] lay within 10 to 100 nM.

For `COc1c([C@H]2[C@H](C(=O)Nc3ccnc(-n4ccnc4C)c3)O[C@@](C)(C(F)(F)F)[C@H]2C)ccc(F)c1F` [Compound 316, (2R,3S,4S,5R)-3-(3,4-difluoro-2-methoxyphenyl)-4,5-dimethyl-N-(2-(2-methyl-1H-imidazol-1-yl)pyridin-4-yl)-5-(trifluoromethyl)-tetrahydrofuran-2-carboxamide], the half-maximal inhibitory concentration (IC50) under setting [1] was less than 10 nM.

On to `COCCOc1c([C@H]2[C@H](C(=O)Nc3ccnc(N4CCN(C)CC4=O)c3)O[C@@](C)(C(F)(F)F)[C@H]2C)ccc(F)c1F` [Compound 585, (2R,3S,4S,5R)-3-(3,4-difluoro-2-(2-methoxyethoxy)phenyl)-4,5-dimethyl-N-(2-(4-methyl-2-oxopiperazin-1-yl)pyridin-4-yl)-5-(trifluoromethyl)tetrahydrofuran-2-carboxamide], for which the IC50 under setting [1] lay within 10 to 100 nM. Same read-out and setting: the value for `COc1c([C@H]2[C@H](C(=O)Nc3ccnc(N(C)CCO)c3)O[C@@](C)(C(F)(F)F)[C@H]2C)ccc(F)c1F` [Compound 521, (2R,3S,4S,5R)-3-(3,4-difluoro-2-methoxy-phenyl)-N-[2-[2-hydroxyethyl(methyl)amino]-4-pyridyl]-4,5-dimethyl-5-(trifluoromethyl)tetrahydrofuran-2-carboxamide] was 10 to 100 nM; that for `COc1c([C@@H]2[C@@H](C(=O)Nc3ccc(C(N)=O)nc3)O[C@](C)(C(F)(F)F)[C@@H]2C)ccc(F)c1C(F)F` (stereo in doubt) [Compound 169, rel-5-((2S,3R,4R,5S)-3-(3-(difluoromethyl)-4-fluoro-2-methoxyphenyl)-4,5-dimethyl-5-(trifluoromethyl)tetrahydrofuran-2-carboxamido)picolinamide] was no less than 1000 nM. Still for that read-out and setting: the value for `COc1c([C@H]2[C@H](C(=O)Nc3cnc(C(C)(C)O)nc3)O[C@@](C)(C(F)(F)F)[C@H]2C)ccc(F)c1F` [Compound 390, (2R,3S,4S,5R)-3-(3,4-difluoro-2-methoxyphenyl)-N-(2-(2-hydroxypropan-2-yl)pyrimidin-5-yl)-4,5-dimethyl-5-(trifluoromethyl)tetrahydrofuran-2-carboxamide] was 10 to 100 nM; that for `CC(C)Oc1c([C@@H]2[C@@H](C(=O)Nc3ccnc(S(C)(=N)=O)c3)O[C@](C)(C(F)(F)F)[C@@H]2C)ccc(F)c1F` (single isomer, unassigned) [Compound 118] was no less than 1000 nM; that for `COCCNCc1cc(NC(=O)C2OC(C)(C(F)(F)F)C(C)C2c2ccc(F)c(F)c2OC)ccn1` (stereo not drawn) [Compound 60, 3-(3,4-difluoro-2-methoxy-phenyl)-N-[2-[(2-methoxyethylamino)methyl]-4-pyridyl]-4,5-dimethyl-5-(trifluoromethyl)tetrahydrofuran-2-carboxamide] was less than 10 nM.

As to `C[C@H]1[C@@H](c2ccc(F)c(F)c2O[C@H]2C[C@@H](O)C2)[C@H](C(=O)Nc2ccc(C(N)=O)nc2)O[C@@]1(C)C(F)(F)F` [Compound 655, 5-((2R,3S,4S,5R)-3-(3,4-difluoro-2-((1S,3R)-3-hydroxycyclobutoxy)phenyl)-4,5-dimethyl-5-(trifluoromethyl)tetrahydrofuran-2-carboxamido)picolinamide], the IC50 under setting [1] was 10 to 100 nM. Turning to `COc1c([C@H]2[C@H](C(=O)Nc3ccc(CC4CCOC4)nc3)O[C@@](C)(C(F)(F)F)[C@H]2C)ccc(F)c1F` (stereo partly drawn) [Compound 392, (2R,3S,4S,5R)-3-(3,4-difluoro-2-methoxyphenyl)-4,5-dimethyl-N-(6-((tetrahydrofuran-3-yl)methyl)pyridin-3-yl)-5-(trifluoromethyl)-tetrahydrofuran-2-carboxamide], under setting [1], the IC50 fell in the range of 100 to 1000 nM. Same read-out and setting: the value for `Cc1nnn2ccc(NC(=O)[C@@H]3O[C@@](C)(C(F)(F)F)[C@@H](C)[C@H]3c3ccc(F)c(F)c3OCCO)cc12` [Compound 574, (2R,3S,4S,5R)-3-(3,4-difluoro-2-(2-hydroxyethoxy)phenyl)-4,5-dimethyl-N-(3-methyl-[1,2,3]triazolo[1,5-a]pyridin-5-yl)-5-(trifluoromethyl)tetrahydrofuran-2-carboxamide] was 10 to 100 nM; that for `COc1c(C2C(C(=O)Nc3ccnc(S(C)(=N)=O)c3)OC(C)(C(F)(F)F)C2C)ccc(F)c1F` (single isomer, unassigned) [Compound 56, 3-(3,4-difluoro-2-methoxy-phenyl)-4,5-dimethyl-N-[2-(methylsulfonimidoyl)-4-pyridyl]-5-(trifluoromethyl)tetrahydrofuran-2-carboxamide] was 100 to 1000 nM; that for `COc1c([C@H]2[C@H](C(=O)Nc3cc(C4CN(C)CCO4)ncc3F)O[C@@](C)(C(F)(F)F)[C@H]2C)ccc(F)c1F` (single isomer, unassigned) [Compound 366, rel-(2R*,3S*,4S*,5R*)-3-(3,4-difluoro-2-methoxyphenyl)-N-(5-fluoro-2-(4-methylmorpholin-2-yl)pyridin-4-yl)-4,5-dimethyl-5-(trifluoromethyl)tetrahydrofuran-2-carboxamide] was less than 10 nM. For `CCOc1c([C@H]2[C@H](C(=O)Nc3ccnc([S@@](C)(=O)=NC)c3)O[C@@](C)(C(F)(F)F)[C@H]2C)ccc(F)c1F` (relative stereo) [Compound 12, rel-(2R,3S,4S,5R)—N-(2-(N,S-dimethylsulfonimidoyl)pyridin-4-yl)-3-(2-ethoxy-3,4-difluorophenyl)-4,5-dimethyl-5-(trifluoromethyl)tetrahydrofuran-2-carboxamide], the half-maximal inhibitory concentration (IC50) under setting [1] was less than 10 nM. Same read-out and setting: the value for `COc1c([C@H]2[C@H](C(=O)NCC3(C)CCOCC3)O[C@@](C)(C(F)(F)F)[C@H]2C)ccc(F)c1F` [Compound 300, (2R,3S,4S,5R)-3-(3,4-difluoro-2-methoxyphenyl)-4,5-dimethyl-N-((4-methyltetrahydro-2H-pyran-4-yl)methyl)-5-(trifluoromethyl)tetrahydrofuran-2-carboxamide] was no less than 1000 nM.
